Here are results for six compounds from patent US9073900B2, “Dihydroquinone derivatives of piperidine and piperazine” (KING FAHD UNIVERSITY OF PETROLEUM AND MINERALS, priority 2013, dated 2015).

The term melting point denotes the temperature of the solid-liquid transition.

`O=C1NCc2ccc(N3CCN(Cc4ccc(-c5ccccc5)cc4)CC3)cc2N1` [Compound 5a, 7-(4-(biphenyl-4-ylmethyl)piperazin-1-yl)-3,4-dihydroquinazolin-2(1H)-one] returned a melting point of 134 to 135 °C. As for `O=C1NCc2ccc(N3CCN(Cc4ccc(-c5ccc(F)cc5)cc4)CC3)cc2N1` [Compound 5b, 7-(4-((4′-fluorobiphenyl-4-yl)methyl)piperazin-1-yl)-3,4-dihydroquinazolin-2(1H)-one], the figure is 220 to 221 °C; as for `O=C1NCc2ccc(N3CCN(Cc4cncc(-c5ccc(F)cc5)c4)CC3)cc2N1` [Compound 5d, 7-(4-((5-(4-fluorophenyl)pyridin-3-yl)methyl)piperazin-1-yl)-3,4-dihydroquinazolin-2(1H)-one], 180 to 181 °C; as for `O=C1NCc2ccc(N3CCN(Cc4cncc(C5=CCCC5)c4)CC3)cc2N1` [Compound 5f, 7-(4((5-cyclopentenylpyridin-3-yl)methyl)piperazin-1-yl)-3,4-dihydroquinazolin-2(1H)-one], 185 to 186 °C.

Turning to `O=C1NCc2ccc(C3CCN(Cc4ccc(-c5ccc(F)cc5)cc4)CC3)cc2N1` [Compound 6b, 7-(1-((4′-fluorobiphenyl-4-yl)methyl)piperidin-4-yl)-3,4-dihydroquinazolin-2(1H)-one], the melting point lay within 160 to 161 °C. Regarding `O=C1NCc2ccc(C3CCN(Cc4cncc(C5=CCCC5)c4)CC3)cc2N1` [Compound 6f, 7-(1-((5-cyclopentenylpyridin-3-yl)methyl)piperidin-4-yl)-3,4-dihydroquinazolin-2(1H)-one], the melting point was in the range of 166 to 167 °C.
